Results published in patent publication US8389743B2, “Histamine-3 receptor antagonists” (Pfizer Inc., priority 2005, dated 2013).
pKi: −log10 of the molar value. Structures can show the parent of a compound that is named as a salt.

Target: T1, rat histamine H3 receptors (Rattus norvegicus, UniProt Q9QYN8)
T1 construct: Frozen rat frontal brain or frozen human post-mortem frontal brain is homogenized; from tissue; host or cells: rat frontal brain membranes
Assay: Rat Histamine H3 Receptor Binding
Settings: rat frontal brain membranes; radioligand 3H-N-methyl-histamine 1 nM; 1 hour incubation; read-out: rH3 Ki
Protocol: The in vitro affinity of the compounds in the present invention at the rat or human histamine H3 receptors can be determined according to the following procedure. Frozen rat frontal brain or frozen human post-mortem frontal brain is homogenized in 20 volumes of cold 50 mM Tris HCl containing 2 mM MgCl2 (pH to 7.4 at 4° C.). The homogenate is then centrifuged at 45,000 G for 10 minutes. The supernatant is decanted and the membrane pellet resuspended by Polytron in cold 50 mM Tris HCl containing 2 mM MgCl2 (pH to 7.4 at 4° C.) and centrifuged again. The final pellet is resuspended in 50 mM Tris HCl containing 2 mM MgCl2 (pH to 7.4 at 25° C.) at a concentration of 12 mg/mL. Dilutions of compounds are made in 10% DMSO/50 mM Tris buffer (pH 7.4) (at 10× final concentration, so that the final DMSO concentration is 1%). Incubations are initiated by the addition of membranes (200 microliters) to 96 well V-bottom polypropylene plates containing 25 microliters of drug dilutions and 25 microliters of radioligand (1 nM final concentration 3H—N-methyl-histamine). After a 1 hour incubation, assay samples are rapidly filtered through Whatman GF/B filters and rinsed with ice-cold 50 mM Tris buffer (pH 7.4) using a Skatron cell harvester. Radioactivity is quantified using a BetaPlate scintillation counter. The percent inhibition of specific binding can then be calculated.

T1 sequence (Q9QYN8 whole entry): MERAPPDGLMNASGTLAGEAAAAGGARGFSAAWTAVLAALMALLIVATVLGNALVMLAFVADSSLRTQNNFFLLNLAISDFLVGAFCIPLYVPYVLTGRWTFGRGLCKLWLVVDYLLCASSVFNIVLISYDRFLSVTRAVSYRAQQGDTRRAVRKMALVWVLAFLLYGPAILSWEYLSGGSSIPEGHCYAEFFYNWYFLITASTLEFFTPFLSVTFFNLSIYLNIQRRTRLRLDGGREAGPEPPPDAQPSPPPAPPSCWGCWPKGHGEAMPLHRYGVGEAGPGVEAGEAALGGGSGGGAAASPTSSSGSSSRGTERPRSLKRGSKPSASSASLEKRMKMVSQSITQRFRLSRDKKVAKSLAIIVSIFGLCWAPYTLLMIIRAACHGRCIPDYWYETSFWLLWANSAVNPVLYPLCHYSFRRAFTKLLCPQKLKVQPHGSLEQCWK

Row | Structure (SMILES) | pKi
1 | CC(C)CNC(=O)C1CC(F)(c2cc(Cl)c(CN3CCCC3)cc2F)C1 (mixture of isomers) [Example 11, 3-(5-Chloro-2-fluoro-4-pyrrolidin-1-ylmethyl-phenyl)-3-fluoro-cyclobutanecarboxylic acid isobutyl-amide] | 7.62
2 | O=C(C1CC(F)(c2ccc(CN3CCCC3)c(F)c2)C1)N1CCCC1 (stereo not drawn) [Example 9, N-{2-fluoro-4-[1-fluoro-3-(pyrrolidin-1-ylcarbonyl)cyclobutyl]benzyl}-pyrrolidine hydrochloride] | 7.72
3 | CCNC(=O)C1CC(c2ccc(CN3CCCC3)c(F)c2)C1 (stereo not drawn) [Example 13, 3-(3-Fluoro-4-pyrrolidin-1-ylmethyl-phenyl)-cyclobutanecarboxylic acid ethylamide] | 8.00
4 | CCNC(=O)C1CC(F)(c2ccc(CN3CCCC3)c(F)c2)C1 (stereo not drawn) [Example 16, 3-Fluoro-3-(3-fluoro-4-pyrrolidin-1-ylmethyl-phenyl)-cyclobutanecarboxylic acid ethylamide] | 7.68

More lines, now with the values ahead:

Row | pKi | Structure (SMILES)
5 | 7.49 | CN(CC1CC1)C(=O)C1CC(F)(c2ccc(CN3CCCC3)c(Cl)c2)C1 (mixture of isomers) [Example 50, 3-(3-Chloro-4-pyrrolidin-1-ylmethyl-phenyl)-3-fluoro-cyclobutanecarboxylic acid cyclopropylmethyl-methyl-amide]
6 | 8.00 | CC(C)CNC(=O)C1CC(F)(c2ccc(CN3CCCC3)c(F)c2)C1 (single isomer, unassigned) [Example 55, 3-Fluoro-3-(3-fluoro-4-pyrrolidin-1-ylmethyl-phenyl)-cyclobutanecarboxylic acid isobutyl-amide]
7 | 7.54 | CCN(C)C(=O)C1CC(F)(c2ccc(CN3CCCC3)c(F)c2)C1 (stereo not drawn) [Example 23, 3-Fluoro-3-(3-fluoro-4-pyrrolidin-1-ylmethyl-phenyl)-cyclobutanecarboxylic acid ethyl-methyl-amide]
8 | 7.96 | O=C(NCC1CC1)C1CC(F)(c2ccc(CN3CCCC3)c(Cl)c2)C1 (stereo not drawn) [Example 46, 3-(3-Chloro-4-pyrrolidin-1-ylmethyl-phenyl)-3-fluoro-cyclobutanecarboxylic acid cyclopropylmethyl-amide]
9 | 7.67 | CCNC(=O)C1CC(F)(c2ccc(CN3CCC[C@@H]3C)c(F)c2)C1 (stereo partly drawn) [Example 59, 3-Fluoro-3-[3-fluoro-4-((S)-2-methyl-pyrrolidin-1-ylmethyl)-phenyl]-cyclobutanecarboxylic acid ethylamide]
